According to ChEMBL document CHEMBL4507320, “Data for DCP probe NVS-MALT1” (2021):

Columns and labels:
[1] = target: Serine/threonine-protein kinase TBK1 (Homo sapiens) (UniProt Q9UHD2); settings: Compound concentration 1000.0 nM
[2] = system: Proto-oncogene tyrosine-protein kinase receptor Ret (Homo sapiens), P07949 [V804L]; settings: Compound concentration 1000.0 nM
[3] = target: D(1A) dopamine receptor (Homo sapiens) (UniProt P21728); settings: Compound concentration 10.0 uM
[4] = target: Receptor tyrosine-protein kinase erbB-3 (Homo sapiens) (UniProt P21860); settings: Compound concentration 1000.0 nM
[5] = target: Cyclin-dependent kinase 4 (Homo sapiens) (UniProt P11802); settings: Compound concentration 1000.0 nM
Chain of Cyclin-dependent kinase 4 (Homo sapiens) (P11802 whole entry): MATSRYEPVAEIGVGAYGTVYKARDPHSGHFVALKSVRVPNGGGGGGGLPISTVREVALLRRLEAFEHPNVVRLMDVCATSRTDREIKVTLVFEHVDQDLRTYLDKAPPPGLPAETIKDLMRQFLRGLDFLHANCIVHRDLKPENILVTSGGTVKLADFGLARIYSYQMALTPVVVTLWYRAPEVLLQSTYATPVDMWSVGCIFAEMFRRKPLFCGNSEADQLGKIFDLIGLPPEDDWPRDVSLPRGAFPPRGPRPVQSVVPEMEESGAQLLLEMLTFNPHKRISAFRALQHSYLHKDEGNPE

[6] = target: Myotonin-protein kinase (Homo sapiens) (UniProt Q09013); settings: Compound concentration 1000.0 nM
[7] = target: BMP-2-inducible protein kinase (Homo sapiens) (UniProt Q9NSY1); settings: Compound concentration 1000.0 nM
[8] = system: Receptor-type tyrosine-protein kinase FLT3 (Homo sapiens), P36888 [D835H]; settings: Compound concentration 1000.0 nM
[9] = target: 5-hydroxytryptamine receptor 2A (Homo sapiens) (UniProt P28223); settings: Compound concentration 10.0 uM
[10] = target: Bone morphogenetic protein receptor type-2 (Homo sapiens) (UniProt Q13873); settings: Compound concentration 1000.0 nM
[11] = target: Bone morphogenetic protein receptor type-1A (Homo sapiens) (UniProt P36894); settings: Compound concentration 1000.0 nM
[12] = system: Tyrosine-protein kinase ABL1 (Homo sapiens), P00519 [F317I]; settings: Compound concentration 1000.0 nM
[13] = target: Tyrosine-protein kinase ITK/TSK (Homo sapiens) (UniProt Q08881); settings: Compound concentration 1000.0 nM
[14] = target: Vascular endothelial growth factor receptor 1 (Homo sapiens) (UniProt P17948); settings: Compound concentration 1000.0 nM
[15] = target: Dual specificity mitogen-activated protein kinase kinase 7 (Homo sapiens) (UniProt O14733); settings: Compound concentration 1000.0 nM
[16] = target: Dual specificity protein kinase CLK3 (Homo sapiens) (UniProt P49761); settings: Compound concentration 1000.0 nM
[17] = target: Cyclin-dependent kinase 4 (Homo sapiens) (UniProt P11802); settings: Compound concentration 1000.0 nM; remark: listed apart in the source
[18] = target: Serine/threonine-protein kinase BRSK2 (Homo sapiens) (UniProt Q8IWQ3); settings: Compound concentration 1000.0 nM
[19] = target: Tyrosine-protein kinase CSK (Homo sapiens) (UniProt P41240); settings: Compound concentration 1000.0 nM
[20] = target: Serine/threonine-protein kinase Nek10 (Homo sapiens) (UniProt Q6ZWH5); settings: Compound concentration 1000.0 nM
[21] = target: Receptor-interacting serine/threonine-protein kinase 2 (Homo sapiens) (UniProt O43353); settings: Compound concentration 1000.0 nM
[22] = target: Homeodomain-interacting protein kinase 2 (Homo sapiens) (UniProt Q9H2X6); settings: Compound concentration 1000.0 nM
[23] = target: Megakaryocyte-associated tyrosine-protein kinase (Homo sapiens) (UniProt P42679); settings: Compound concentration 1000.0 nM
Chain of Megakaryocyte-associated tyrosine-protein kinase (Homo sapiens) (P42679 whole entry): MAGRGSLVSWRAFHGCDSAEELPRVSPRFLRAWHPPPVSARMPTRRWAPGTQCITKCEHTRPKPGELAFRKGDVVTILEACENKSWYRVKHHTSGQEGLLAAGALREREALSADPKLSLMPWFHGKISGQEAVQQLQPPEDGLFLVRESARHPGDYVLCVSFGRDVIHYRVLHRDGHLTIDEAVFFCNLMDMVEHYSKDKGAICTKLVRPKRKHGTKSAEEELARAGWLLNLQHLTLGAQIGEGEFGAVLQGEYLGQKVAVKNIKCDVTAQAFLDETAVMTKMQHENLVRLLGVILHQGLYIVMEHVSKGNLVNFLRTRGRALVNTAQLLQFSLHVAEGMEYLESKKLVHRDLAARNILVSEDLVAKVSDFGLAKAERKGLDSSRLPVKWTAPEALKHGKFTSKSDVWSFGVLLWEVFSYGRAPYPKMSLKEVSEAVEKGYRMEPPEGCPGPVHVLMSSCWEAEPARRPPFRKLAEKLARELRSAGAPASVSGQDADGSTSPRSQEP

[24] = target: Receptor-type tyrosine-protein kinase FLT3 (Homo sapiens, UniProt P36888); settings: Compound concentration 1000.0 nM
[25] = target: Phosphatidylinositol 4-phosphate 5-kinase type-1 gamma (Homo sapiens) (UniProt O60331); settings: Compound concentration 1000.0 nM
[26] = target: Ribosomal protein S6 kinase alpha-3 (Homo sapiens) (UniProt P51812); settings: Compound concentration 1000.0 nM
[27] = target: Protein-tyrosine kinase 2-beta (Homo sapiens) (UniProt Q14289); settings: Compound concentration 1000.0 nM
[28] = target: Ribosomal protein S6 kinase alpha-5 (Homo sapiens) (UniProt O75582); settings: Compound concentration 1000.0 nM
Chain of Ribosomal protein S6 kinase alpha-5 (Homo sapiens) (O75582 whole entry, looked up): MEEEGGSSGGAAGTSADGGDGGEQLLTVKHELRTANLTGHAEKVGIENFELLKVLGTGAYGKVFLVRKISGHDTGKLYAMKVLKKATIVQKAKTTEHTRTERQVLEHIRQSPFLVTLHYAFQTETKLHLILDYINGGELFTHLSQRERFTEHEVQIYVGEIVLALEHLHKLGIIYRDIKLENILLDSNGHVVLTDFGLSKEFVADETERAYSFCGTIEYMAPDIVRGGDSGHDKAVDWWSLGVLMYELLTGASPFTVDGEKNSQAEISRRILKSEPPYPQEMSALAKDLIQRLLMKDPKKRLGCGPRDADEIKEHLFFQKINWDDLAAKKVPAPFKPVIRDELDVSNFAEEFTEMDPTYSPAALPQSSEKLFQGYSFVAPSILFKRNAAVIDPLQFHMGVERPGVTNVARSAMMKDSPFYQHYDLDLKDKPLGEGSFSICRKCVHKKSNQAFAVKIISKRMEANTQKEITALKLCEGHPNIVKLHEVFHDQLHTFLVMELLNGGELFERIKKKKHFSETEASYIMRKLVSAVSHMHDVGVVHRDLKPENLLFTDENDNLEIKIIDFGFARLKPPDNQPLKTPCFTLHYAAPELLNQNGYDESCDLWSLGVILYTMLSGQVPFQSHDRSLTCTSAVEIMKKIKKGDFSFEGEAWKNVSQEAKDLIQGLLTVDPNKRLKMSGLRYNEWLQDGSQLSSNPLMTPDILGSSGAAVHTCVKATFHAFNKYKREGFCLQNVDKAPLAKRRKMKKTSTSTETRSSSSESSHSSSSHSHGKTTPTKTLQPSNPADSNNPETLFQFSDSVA

[29] = target: Tyrosine-protein kinase Fer (Homo sapiens) (UniProt P16591); settings: Compound concentration 1000.0 nM
[30] = system: Epidermal growth factor receptor (Homo sapiens), P00533 [L858R]; settings: Compound concentration 1000.0 nM
[31] = target: Sodium-dependent serotonin transporter (Homo sapiens) (UniProt P31645); settings: Compound concentration 10.0 uM
[32] = target: Serine/threonine-protein kinase PAK 6 (Homo sapiens) (UniProt Q9NQU5); settings: Compound concentration 1000.0 nM
[33] = target: Ribosomal protein S6 kinase alpha-5 (Homo sapiens) (UniProt O75582); settings: Compound concentration 1000.0 nM; remark: listed apart in the source
[34] = target: Ephrin type-B receptor 2 (Homo sapiens) (UniProt P29323); settings: Compound concentration 1000.0 nM
Chain of Ephrin type-B receptor 2 (Homo sapiens) (P29323 whole entry): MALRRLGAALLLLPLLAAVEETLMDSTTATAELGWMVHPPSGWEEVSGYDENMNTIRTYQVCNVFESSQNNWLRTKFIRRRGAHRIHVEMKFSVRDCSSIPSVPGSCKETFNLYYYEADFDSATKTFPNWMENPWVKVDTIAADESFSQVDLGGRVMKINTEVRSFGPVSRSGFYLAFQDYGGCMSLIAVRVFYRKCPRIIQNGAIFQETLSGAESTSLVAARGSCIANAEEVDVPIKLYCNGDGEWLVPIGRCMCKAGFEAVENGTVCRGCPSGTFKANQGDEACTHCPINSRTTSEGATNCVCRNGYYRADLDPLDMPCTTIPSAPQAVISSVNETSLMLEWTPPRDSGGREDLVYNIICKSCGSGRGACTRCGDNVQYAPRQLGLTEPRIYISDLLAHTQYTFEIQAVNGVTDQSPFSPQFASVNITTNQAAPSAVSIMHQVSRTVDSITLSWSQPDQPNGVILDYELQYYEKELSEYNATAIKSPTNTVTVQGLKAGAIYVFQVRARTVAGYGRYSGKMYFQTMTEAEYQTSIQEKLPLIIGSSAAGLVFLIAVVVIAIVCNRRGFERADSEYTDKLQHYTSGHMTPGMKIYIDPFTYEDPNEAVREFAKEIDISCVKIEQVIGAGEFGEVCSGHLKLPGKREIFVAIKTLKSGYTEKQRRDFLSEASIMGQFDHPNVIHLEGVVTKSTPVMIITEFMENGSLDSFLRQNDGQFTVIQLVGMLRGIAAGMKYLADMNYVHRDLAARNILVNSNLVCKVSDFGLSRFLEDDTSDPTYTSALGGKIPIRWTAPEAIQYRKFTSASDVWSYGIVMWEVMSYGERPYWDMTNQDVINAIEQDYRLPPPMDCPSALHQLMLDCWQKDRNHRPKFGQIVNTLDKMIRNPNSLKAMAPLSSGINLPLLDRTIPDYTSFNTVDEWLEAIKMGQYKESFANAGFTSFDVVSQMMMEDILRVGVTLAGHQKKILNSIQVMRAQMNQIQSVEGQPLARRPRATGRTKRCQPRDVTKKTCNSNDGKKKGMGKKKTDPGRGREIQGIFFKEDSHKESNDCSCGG

[35] = target: Phosphatidylinositol 4-phosphate 5-kinase type-1 alpha (Homo sapiens) (UniProt Q99755); settings: Compound concentration 1000.0 nM
[36] = target: Serine/threonine-protein kinase PAK 5 (Homo sapiens) (UniProt Q9P286); settings: Compound concentration 1000.0 nM
[37] = system: Phosphatidylinositol 4,5-bisphosphate 3-kinase catalytic subunit alpha isoform (Homo sapiens), P42336 [E542K]; settings: Compound concentration 1000.0 nM
Chain of Phosphatidylinositol 4,5-bisphosphate 3-kinase catalytic subunit alpha isoform (Homo sapiens), P42336 [E542K] (P42336 whole entry E542K, canonical isoform): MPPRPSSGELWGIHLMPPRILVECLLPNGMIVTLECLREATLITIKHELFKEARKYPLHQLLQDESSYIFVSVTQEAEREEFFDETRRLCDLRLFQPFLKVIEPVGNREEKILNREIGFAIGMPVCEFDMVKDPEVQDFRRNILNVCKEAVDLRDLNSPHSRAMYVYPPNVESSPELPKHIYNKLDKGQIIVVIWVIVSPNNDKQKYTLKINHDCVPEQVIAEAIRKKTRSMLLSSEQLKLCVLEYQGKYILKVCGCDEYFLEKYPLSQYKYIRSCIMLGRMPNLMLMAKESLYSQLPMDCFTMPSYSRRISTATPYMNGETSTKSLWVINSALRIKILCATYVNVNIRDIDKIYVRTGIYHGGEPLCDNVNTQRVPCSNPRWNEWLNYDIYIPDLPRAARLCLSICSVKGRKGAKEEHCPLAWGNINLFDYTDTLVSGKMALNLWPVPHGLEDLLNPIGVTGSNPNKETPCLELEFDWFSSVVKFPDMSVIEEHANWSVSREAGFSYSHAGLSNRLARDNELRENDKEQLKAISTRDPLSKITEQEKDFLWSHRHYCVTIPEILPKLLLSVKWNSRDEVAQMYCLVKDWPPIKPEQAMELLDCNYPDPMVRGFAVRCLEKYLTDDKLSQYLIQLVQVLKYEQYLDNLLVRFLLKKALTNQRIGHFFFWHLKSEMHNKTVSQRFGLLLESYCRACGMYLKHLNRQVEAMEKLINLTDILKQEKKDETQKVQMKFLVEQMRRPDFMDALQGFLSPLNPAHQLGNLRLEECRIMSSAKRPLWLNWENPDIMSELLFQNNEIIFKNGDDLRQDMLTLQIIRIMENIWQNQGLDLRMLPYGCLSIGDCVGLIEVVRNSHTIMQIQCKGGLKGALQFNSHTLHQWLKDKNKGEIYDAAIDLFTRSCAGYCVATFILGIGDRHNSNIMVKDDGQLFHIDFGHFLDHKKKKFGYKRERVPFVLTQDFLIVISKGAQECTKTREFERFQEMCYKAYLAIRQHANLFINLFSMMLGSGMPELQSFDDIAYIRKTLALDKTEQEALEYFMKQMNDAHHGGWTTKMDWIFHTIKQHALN

[38] = target: Serine/threonine-protein kinase Sgk1 (Homo sapiens) (UniProt O00141); settings: Compound concentration 1000.0 nM
[39] = target: 5-hydroxytryptamine receptor 1D (Homo sapiens) (UniProt P28221); settings: Compound concentration 10.0 uM
[40] = target: Ribosomal protein S6 kinase alpha-2 (Homo sapiens) (UniProt Q15349); settings: Compound concentration 1000.0 nM
[41] = target: Serine/threonine-protein kinase pim-2 (Homo sapiens) (UniProt Q9P1W9); settings: Compound concentration 1000.0 nM
Chain of Serine/threonine-protein kinase pim-2 (Homo sapiens) (Q9P1W9 whole entry, looked up): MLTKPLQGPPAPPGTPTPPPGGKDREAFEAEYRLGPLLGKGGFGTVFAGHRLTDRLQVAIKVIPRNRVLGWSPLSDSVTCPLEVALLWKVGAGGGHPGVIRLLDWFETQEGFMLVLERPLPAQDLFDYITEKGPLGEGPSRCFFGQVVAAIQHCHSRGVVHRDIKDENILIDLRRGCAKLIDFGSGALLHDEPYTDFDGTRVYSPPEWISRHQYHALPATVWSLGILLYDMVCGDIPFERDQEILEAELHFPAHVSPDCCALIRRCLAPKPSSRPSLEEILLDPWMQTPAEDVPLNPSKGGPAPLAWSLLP

[42] = system: Tyrosine-protein kinase ABL1 (Homo sapiens), P00519 [H396P]; settings: Compound concentration 1000.0 nM
[43] = target: Serine/threonine-protein kinase D1 (Homo sapiens) (UniProt Q15139); settings: Compound concentration 1000.0 nM

Chain of Serine/threonine-protein kinase TBK1 (Homo sapiens) (Q9UHD2 whole entry): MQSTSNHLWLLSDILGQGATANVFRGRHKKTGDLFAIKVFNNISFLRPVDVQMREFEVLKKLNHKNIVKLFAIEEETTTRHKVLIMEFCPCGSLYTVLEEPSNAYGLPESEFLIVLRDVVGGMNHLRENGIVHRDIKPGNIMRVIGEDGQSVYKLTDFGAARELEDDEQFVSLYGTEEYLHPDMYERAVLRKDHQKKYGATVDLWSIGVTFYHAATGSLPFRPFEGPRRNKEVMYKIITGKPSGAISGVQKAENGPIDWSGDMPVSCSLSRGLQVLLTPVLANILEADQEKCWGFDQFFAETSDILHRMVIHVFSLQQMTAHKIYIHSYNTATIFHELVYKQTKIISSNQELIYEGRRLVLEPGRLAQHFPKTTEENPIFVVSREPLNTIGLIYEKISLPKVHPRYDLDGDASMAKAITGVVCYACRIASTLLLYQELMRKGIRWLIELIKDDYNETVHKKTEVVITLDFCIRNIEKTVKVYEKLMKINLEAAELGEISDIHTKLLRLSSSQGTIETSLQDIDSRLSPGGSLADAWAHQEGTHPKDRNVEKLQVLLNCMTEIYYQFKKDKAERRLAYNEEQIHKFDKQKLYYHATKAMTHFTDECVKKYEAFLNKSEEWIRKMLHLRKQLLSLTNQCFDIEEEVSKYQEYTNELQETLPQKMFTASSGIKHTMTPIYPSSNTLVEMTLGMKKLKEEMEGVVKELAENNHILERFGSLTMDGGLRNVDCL

CO[C@@H](C)c1c(Nc2ccc([C@H](N(C)C(=O)C3CCS(=O)(=O)CC3)C(F)(F)F)cc2)cnc2cc(Cl)nn12 [NVS-MALT1]
inactive: residual activity [1] 59% | residual activity [2] 86% | inhibition [3] 23.7% | residual activity [4] 100% | residual activity [5] 100% | residual activity [6] 84% | residual activity [7] 89% | residual activity [8] 75% | inhibition [9] 2.45% | residual activity [10] 91% | residual activity [11] 71% | residual activity [12] 100% | residual activity [13] 88% | residual activity [14] 82% | residual activity [15] 100% | residual activity [16] 87% | residual activity [17] 100% | residual activity [18] 79% | residual activity [19] 100% | residual activity [20] 100% | residual activity [21] 74% | residual activity [22] 100% | residual activity [23] 99% | residual activity [24] 68% | residual activity [25] 100% | residual activity [26] 87% | residual activity [27] 83% | residual activity [28] 86% | residual activity [29] 88% | residual activity [30] 88% | inhibition [31] 11.3% | residual activity [32] 100% | residual activity [33] 88% | residual activity [34] 76% | residual activity [35] 100% | residual activity [36] 100% | residual activity [37] 71% | residual activity [38] 94% | inhibition [39] -2.45% | residual activity [40] 100% | residual activity [41] 100% | residual activity [42] 95% | residual activity [43] 100%

CO[C@@H](C)c1c(Nc2ccc([C@@H](N(C)C(=O)C3CCS(=O)(=O)CC3)C(F)(F)F)cc2)cnc2cc(Cl)nn12 [NVS-MALT1-C]
inactive: residual activity [1] 77% | residual activity [2] 78% | inhibition [3] 17.9% | residual activity [4] 100% | residual activity [5] 100% | residual activity [6] 91% | residual activity [7] 91% | residual activity [8] 63% | inhibition [9] 4.93% | residual activity [10] 84% | residual activity [11] 100% | residual activity [12] 100% | residual activity [13] 94% | residual activity [14] 85% | residual activity [15] 100% | residual activity [16] 87% | residual activity [17] 100% | residual activity [18] 90% | residual activity [19] 100% | residual activity [20] 100% | residual activity [21] 83% | residual activity [22] 100% | residual activity [23] 98% | residual activity [24] 64% | residual activity [25] 100% | residual activity [26] 100% | residual activity [27] 100% | residual activity [28] 82% | residual activity [29] 89% | residual activity [30] 87% | inhibition [31] 14.6% | residual activity [32] 100% | residual activity [33] 70% | residual activity [34] 92% | residual activity [35] 89% | residual activity [36] 100% | residual activity [37] 78% | residual activity [38] 89% | inhibition [39] -3.07% | residual activity [40] 100% | residual activity [41] 95% | residual activity [42] 96% | residual activity [43] 100%
